Experimental data: patent US20260306459A1, “INHIBITORS OF NSUN1- AND NSUN2-MEDIATED ACTIVE STRUCTURES” (THE UNIVERSITY OF CHICAGO, priority 2023, published 2026)
“Also recorded” adds a separate entry of the source.

Legend:
[1] = molecular target: NSUN1-RNA:m5C interaction (Homo sapiens, UniProt P46087); experiment: PL-RCA-FCM, NSUN1-RNA:m5C interaction; type: cell-based
Description: (§1) FIGS. 5A-5G display a pipeline of computational design and functional screening of small-molecule compound libraries as well as exemplary characterization and validation of identified positive hit compounds and their targets. FIGS. 5A-5D display an exemplary experimental procedure, beginning with characterization of NSUN1 and/or NSUN2 putative binding modules for interaction with ACS components (FIGS. 5A-5B), a graphic displaying the design of a small molecule library and testing of the putative small molecule NSUN1/2-ACS inhibitors in cell lines (FIG. 5C), characterization of the NSUN1/2-ACS inhibitors interactions with the ACS machinery (FIG. 5D).
(§2) The PL-RCA-CM/imaging technique utilized in the inventors previous work (Cheng, J. X. et al., Nature Communications 2018) was suitable to visualize and semi-quantify the NSUN1/2-mediated ACS in cells. However, the previous technique had the disadvantage of having a low sensitivity and low throughput. To overcome this bottleneck, as described herein, the inventors developed NSUN1/2-targeting fluorescence quenching and release (FQR) plate assay (FIG. 6A) and PL-RCA flow cytometry (PL-RCA-FCM) technology (FIG. 6B) for screening of NSUN1/2-targeting drug libraries and quantitatively measuring NSUN1/2-mediated ACS with and without drugs in a lineage-specific and high-throughput manner. […]

[2] = molecular target: NSUN1-c-MYC interaction (Homo sapiens, UniProt P46087); experiment: PL-RCA-FCM, NSUN1-c-MYC interaction; type: cell-based
NSUN1-c-MYC interaction, sequence (P46087 whole entry): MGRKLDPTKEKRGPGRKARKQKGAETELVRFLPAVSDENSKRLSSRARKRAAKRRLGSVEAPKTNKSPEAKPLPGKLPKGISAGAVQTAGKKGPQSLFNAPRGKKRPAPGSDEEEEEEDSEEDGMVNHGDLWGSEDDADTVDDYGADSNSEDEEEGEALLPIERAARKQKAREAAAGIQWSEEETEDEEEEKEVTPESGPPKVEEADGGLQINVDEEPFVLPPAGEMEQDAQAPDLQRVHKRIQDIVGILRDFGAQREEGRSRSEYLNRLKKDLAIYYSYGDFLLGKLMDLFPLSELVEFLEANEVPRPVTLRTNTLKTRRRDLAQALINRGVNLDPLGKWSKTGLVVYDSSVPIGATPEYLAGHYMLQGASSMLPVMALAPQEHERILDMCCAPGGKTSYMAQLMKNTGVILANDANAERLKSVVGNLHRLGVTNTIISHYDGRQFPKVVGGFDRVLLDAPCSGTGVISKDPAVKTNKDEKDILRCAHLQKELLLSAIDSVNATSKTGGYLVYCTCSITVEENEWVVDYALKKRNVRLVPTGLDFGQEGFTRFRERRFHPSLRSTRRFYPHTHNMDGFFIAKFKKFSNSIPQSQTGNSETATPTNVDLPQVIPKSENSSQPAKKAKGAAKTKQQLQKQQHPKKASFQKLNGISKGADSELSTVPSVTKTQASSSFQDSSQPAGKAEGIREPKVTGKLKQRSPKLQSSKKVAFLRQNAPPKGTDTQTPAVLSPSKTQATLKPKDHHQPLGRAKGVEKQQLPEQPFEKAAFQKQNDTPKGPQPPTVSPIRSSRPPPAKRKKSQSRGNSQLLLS
Description: as §1
(§3) Black=negative control, blue=positive control, no drug=red.
as §2, with “However, the previous technique had the disadvantage of having a low sensitivity and low throughput.” left out

[3] = test system: SC cells; experiment: MTT growth inhibition in venetoclax-resistant monocytic leukemia cell line SC; type: cell-based, human
Description: (§4) FIGS. 8A-8B display a schematic of an 5-ethynyl uridine click chemistry (EC)-coupled flow cytometry (EC-FCM) assay (FIG. 8A), while FIG. 8B depicts the results of an EC-FCM assay showing distinct drug-specific signatures/patterns of nascent RNA synthesis inhibition in the venetoclax sensitive leukemia cell line (K1). The MTT assay measures cell viability and proliferation as well as cytotoxicity of compounds by assessing cellular metabolic activity. The associated measurement can be described as cell viability, cell killing, and/or growth inhibition.
(§5) FIGS. 11A-11D display scatter plot representations of screening results for AI-designed NSUN1-targeting compound libraries in a venetcoclax-resistant human myeloid leukemia cell line (SC), lung cancer cell line (H82), and venetoclax resistant human […], and a schematic representation of categorization of the results. A human myeloid leukemia cell Line (SC), a lung cancer cell line (H82 or K562) were both incubated at drug concentration 10 μM/μL overnight. MTT assays were performed after 24 hours, and changes were calculated as the percentage of mean absorbance (n=3) versus mean absorbance of drug-free control (n=3). Negative outliers indicated in red ovals. FIG. 11A depicts the results of an NSUN1-targeting drug library, 74 drugs, comparing growth/inhibition in H-82 (Y axis) and SC (X axis) cell lines. FIG. 11B depicts the results of an NSUN2-targeting drug library, 102 drugs, comparing growth/inhibition in H-82 (Y axis) and SC (X axis) cell lines. FIG. 11C depicts the results of an NSUN1-targeting drug library, 74 drugs, comparing growth/inhibition in K562 (Y axis) and SC (X axis) cell lines. FIG. 11D is a schematic representation showing categorization of the results from screens performed as described in FIG. 11, and validation experiments as described in FIG. 12.
(§6) FIGS. 12A-12J display bar graphs displaying the results of validation experiments for small molecule inhibitors of NSUN1/2-ACS interactions as identified herein. Drug validation of select SC, H82, and/or K562 inhibiting compounds in mouse acute myeloid leukemia cell Line (C1498), SC cells, H82 cells, and/or K562 cells. NSUN1-17 and/or venetoclax acted as controls. Inhibition of cell vitality was identified as dose-dependent for certain small molecules, not merely cytotoxic. In brief, stock with concentration 0.4×10^6 test (e.g., SC, H82, K562, or C1498, as labelled) cells/mL, and 10 μM/μL drug was serially diluted into drug-free cell stock to reach concentrations of 1 μM/μL and […] and split into 100 μL volumes in a 96-well plate. MTT assays performed after 24 hour incubation. Percentages calculated as a difference in mean absorbance of each drug triplicate and mean absorbance in drug-free cell triplicate. Red bars represent standard errors. The concentration of drug represented by each column is from left to right as written in the figure keys. FIGS. 12A-12E provide results from independent repeats for different groupings of small molecules tested against C1498 cells. FIGS. 12F-12G provide results from independent repeats for different groupings of small molecules tested against H82 cells. FIGS. […] provide results from independent repeats for different groupings of small molecules tested against SC cells. FIG. 12J provide results from an assay against K562 cells.
The inventors then designed a protocol for functional screening of NSUN1/2-targeting supercomputing/AI-derived compound libraries as schematically presented in FIGS. 5A-5G. Briefly, the library compounds were obtained from various chemical companies/vendors and dissolved in DMSO, and then applied to 96-well plates that contained leukemia and/or other cancer cells that were resistant to venetoclax. […]

[4] = test system: leukemia and lung cancer cell lines; experiment: Functional (MTT) screening of NSUN1/2-targeting libraries in leukemia and lung cancer cell lines; type: cell-based, human; details: multiple leukemia lines and/or lung cancer cell lines
Description: as §5, §6
The inventors then designed a protocol for functional screening of NSUN1/2-targeting supercomputing/AI-derived compound libraries as schematically presented in FIGS. 5A-5G. Briefly, the library compounds were obtained from various chemical companies/vendors and dissolved in DMSO, and then applied to 96-well plates that contained leukemia and/or other cancer cells that were resistant to venetoclax. Both the routine colorimetric assay (MTT assay) and the newly developed NSUN1/2-targeting fluorescence quenching and release (FQR) assay were performed to select bioactive compounds for further quantitative study to confirm that they targetNSUN1/2 and their associated ACS. As described below, the compound libraries screened through cancer cell proliferation and/or NSUN1/2 localization to the ACS successfully identified numerous promising compounds that can inhibit the leukemia cell growth and appear to target the NSUN1-mediated ACS (see Table 2). This success has proven the feasibility and efficacy of the described supercomputing/AI design and functional screening of the NSUN1/2-targeting drug libraries. In some aspects, screening is conducted using drug-resistant cell lines. […]

[5] = test system: NSUN1 and NSUN2 binding modules; experiment: Synergy experiments; details: besides the NSUN1 A-460 binding module
Description: Without being limited by theory, this may potentially be why NSUN1-17 is effective in multiple different cancer types.

[6] = molecular target: T1, NSUN1-eRNAPII interaction (Homo sapiens, UniProt P46087); experiment: PL-RCA-FCM, NSUN1-eRNAPII interaction; type: cell-based
T1 construct: RNAPII
T1 sequence (P46087 whole entry): as above
Description: as §1, §3
as §2, with “However, the previous technique had the disadvantage of having a low sensitivity and low throughput.” left out

[7] = molecular target: T2, NSUN2-RNA polymerase II (RNAPII) interaction (Homo sapiens, UniProt Q08J23); experiment: PL-RCA-FCM, NSUN2-RNAPII interaction; type: cell-based
T2 construct: RNAPII CTD2-S2P
T2 sequence (Q08J23 whole entry): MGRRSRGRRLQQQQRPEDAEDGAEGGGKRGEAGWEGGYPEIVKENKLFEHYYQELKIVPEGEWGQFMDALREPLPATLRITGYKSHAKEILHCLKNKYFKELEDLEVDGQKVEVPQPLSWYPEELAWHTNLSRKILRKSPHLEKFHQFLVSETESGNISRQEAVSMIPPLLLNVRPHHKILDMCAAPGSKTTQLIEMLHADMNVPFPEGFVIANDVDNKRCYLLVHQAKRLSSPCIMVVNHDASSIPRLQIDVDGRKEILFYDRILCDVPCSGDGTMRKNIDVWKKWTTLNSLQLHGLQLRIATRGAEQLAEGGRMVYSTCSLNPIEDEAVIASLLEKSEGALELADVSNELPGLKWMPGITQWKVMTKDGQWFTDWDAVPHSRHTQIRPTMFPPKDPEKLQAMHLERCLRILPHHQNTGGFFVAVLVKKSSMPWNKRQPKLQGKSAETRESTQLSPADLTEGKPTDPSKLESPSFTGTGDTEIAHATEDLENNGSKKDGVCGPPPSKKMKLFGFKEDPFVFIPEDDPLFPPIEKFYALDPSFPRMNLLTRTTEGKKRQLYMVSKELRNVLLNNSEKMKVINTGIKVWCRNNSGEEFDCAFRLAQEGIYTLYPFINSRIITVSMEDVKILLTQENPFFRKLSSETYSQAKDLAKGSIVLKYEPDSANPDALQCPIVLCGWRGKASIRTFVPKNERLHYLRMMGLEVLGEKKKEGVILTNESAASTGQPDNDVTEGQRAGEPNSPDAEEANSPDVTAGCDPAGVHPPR
Description: as §3
The PL-RCA-CM/imaging technique utilized in the inventors previous work (Cheng, J. X. et al., Nature Communications 2018) was suitable to visualize and semi-quantify the NSUN1/2-mediated ACS in cells. However, the previous technique had the disadvantage of having a low sensitivity and low throughput. To overcome this bottleneck, as described herein, the inventors developed NSUN1/2-targeting fluorescence quenching and release (FQR) plate assay (FIG. 6A) and PL-RCA flow cytometry (PL-RCA-FCM) technology (FIG. 6B) for screening of NSUN1/2-targeting drug libraries and quantitatively measuring NSUN1/2-mediated ACS with and without drugs in a lineage-specific and high-throughput manner. The new PL-RCA-FCM detected very strong PL-RCA signals (>2 logs) of the NSUN2-mediated interactions with m5C, RNAPII CTD2-S2P and BRD4, particularly in the venetoclax-resistant leukemia cells (SC) (FIG. 6C), in comparison to the venetoclax-sensitive K1 cells (FIG. 6D).

[8] = test system: C1498 cells; experiment: MTT growth inhibition in myeloid leukemia cell line C1498; type: cell-based, mouse; details: mouse AML cell line
Description: as §4, §6
The inventors then designed a protocol for functional screening of NSUN1/2-targeting supercomputing/AI-derived compound libraries as schematically presented in FIGS. 5A-5G. Briefly, the library compounds were obtained from various chemical companies/vendors and dissolved in DMSO, and then applied to 96-well plates that contained leukemia and/or other cancer cells that were resistant to venetoclax. Both the routine colorimetric assay (MTT assay) and the newly developed NSUN1/2-targeting fluorescence quenching and release (FQR) assay were performed to select bioactive compounds for further quantitative study to confirm that they targetNSUN1/2 and their associated ACS. As described below, the compound libraries screened through cancer cell proliferation and/or NSUN1/2 localization to the ACS successfully identified numerous promising compounds that can inhibit the leukemia cell growth and appear to target the NSUN1-mediated ACS (see Table 2). This success has proven the feasibility and efficacy of the described supercomputing/AI design and functional screening of the NSUN1/2-targeting drug libraries. In some aspects, screening is conducted using drug-resistant cell lines. In some aspects, screening is conducted using drug-sensitive cell lines. In some aspects, screening is conducted in leukemia cell lines. In some aspects, screening is conducted in other cancer cell lines besides leukemia (e.g., lung cancer cell lines). In some aspects, NSUN1/2-ACS inhibitors identified are verified in additional cell lines and/or animal models (see e.g., Tables 4-6).

[9] = test system: K1VR cells; experiment: Venetoclax sensitivity of K1VR cells after NSUN1/NSUN2 knockdown; type: cell-based; details: knockdown of either NSUN1 or NSUN2
[10] = test system: MDS/AML; details: cited from earlier work
[11] = test system: H82 cells; experiment: MTT growth inhibition in venetoclax-resistant lung cancer cell line H82; type: cell-based, human; details: human lung cancer cell line NCI-H82
Description: as §4, §5
FIGS. 12A-12J display bar graphs displaying the results of validation experiments for small molecule inhibitors of NSUN1/2-ACS interactions as identified herein. Drug validation of select SC, H82, and/or K562 inhibiting compounds in mouse acute myeloid leukemia cell Line (C1498), SC cells, H82 cells, and/or K562 cells. NSUN1-17 and/or venetoclax acted as controls. Inhibition of cell vitality was identified as dose-dependent for certain small molecules, not merely cytotoxic. In brief, stock with concentration 0.4×10^6 test (e.g., SC, H82, K562, or C1498, as labelled) cells/mL, and 10 μM/μL drug was serially diluted into drug-free cell stock to reach concentrations of 1 μM/μL and […] and split into 100 μL volumes in a 96-well plate. MTT assays performed after 24 hour incubation. Percentages calculated as a difference in mean absorbance of each drug triplicate and mean absorbance in drug-free cell triplicate. […]

[12] = test system: Kasumi-1 (K1) cells; experiment: Venetoclax sensitivity of Kasumi-1 cells; type: cell-based
[13] = test system: CCRF-CEM cells; experiment: Venetoclax sensitivity of CCRF-CEM cells; type: cell-based
[14] = test system: eRNAPII (CTD-S2P)-CTD-S5P interaction; details: Cheng 2018; cited from earlier work
[15] = test system: eRNAPII (CTD-S2P)-NSUN1 interaction; details: Cheng 2018; cited from earlier work
[16] = test system: eRNAPII (CTD-S2P)-NSUN3 interaction; details: Cheng 2018; cited from earlier work
[17] = test system: SCAR cells; details: low concentrations of 5-AZA, NSUN1 siRNA; Cheng 2018; cited from earlier work
[18] = test system: eRNAPII (CTD-S2P)-DNMT2 interaction; details: Cheng 2018; cited from earlier work
[19] = test system: BRD4-eRNAPII (CTD-S2P) interaction; details: azacitidine-resistant M2AR cells; Cheng 2018; cited from earlier work
[20] = test system: BRD4-NSUN1 interaction; details: azacitidine-resistant M2AR cells; Cheng 2018; cited from earlier work

NSUN1-RNA:m5C interaction, sequence (P46087 whole entry): as the sequence (P46087 whole entry) above

Cc1[nH]nc2ccc(-c3cncc(OC[C@@H](N)Cc4c[nH]c5ccccc45)c3)cc12 [NSUN1-17]
Effect on NSUN1 interaction with RNA:m5C [1]: but not the interaction between NSUN1 and RNA m5C; also recorded: little effects
Effect on NSUN1 interaction with c-MYC [2]: inhibited the interaction; also recorded: can only disrupt the NSUN1-mediated interaction; also recorded: effectively disrupted
Inhibition of growth of venetoclax-resistant leukemia (SC) cells [3]: inhibition of the growth of venetoclax-resistant SC cells; also recorded: inhibit drug (venetoclax)-resistant leukemia cells
Efficacy of tumor cell growth inhibition [4]: high-efficacy of tumor cell growth inhibition
Binding modules targeted, from synergy experiments [5]: likely to target multiple binding modules in both NSUN1 and NSUN2
Effect on NSUN1 interaction with eRNAPII/RNAPII [6]: inhibited the interaction; also recorded: can only disrupt the NSUN1-mediated interaction; also recorded: effectively disrupted
Effect on NSUN2-mediated interaction with RNA polymerase II [7]: not the NSUN-2 mediated interaction

CC1(C)CCC(CN2CCN(c3ccc(C(=O)NS(=O)(=O)c4ccc(NCC5CCOCC5)c([N+](=O)[O-])c4)c(Oc4cnc5[nH]ccc5c4)c3)CC2)=C(c2ccc(Cl)cc2)C1 [venetoclax, Venetoclax]
Sensitivity/resistance of C1498 cells [8]: moderate to high resistance
Sensitivity of K1VR cells after NSUN1 or NSUN2 siRNA knockdown [9]: re-sensitize
AML patients developing venetoclax acquired resistance ([10]; AML patients, venetoclax-based therapy, acquired resistance): > 60%
MDS/AML with primary venetoclax resistance ([10]; MDS/AML, primary resistance): 30-40%
Sensitivity/resistance of SC cells ([3]; monocytic leukemia line SC): highly resistant
Sensitivity/resistance of NCI-H82 cells [11]: resistant
Sensitivity/resistance of Kasumi-1 cells [12]: sensitive
Sensitivity/resistance of CCRF-CEM cells [13]: sensitive

Nc1ncn([C@@H]2O[C@H](CO)[C@@H](O)[C@H]2O)c(=O)n1 [5-AZA, 5-azacytidine]
Sensitivity of eRNAPII (CTD-S2P)-CTD-S5P interaction [14]: resistant
Sensitivity of eRNAPII (CTD-S2P)-NSUN1 interaction [15]: resistant
Sensitivity of eRNAPII (CTD-S2P)-NSUN3 interaction [16]: highly sensitive
Response of 5-AZA-resistant SCAR cells after NSUN1 knockdown [17]: re-sensitized
Sensitivity of eRNAPII (CTD-S2P)-DNMT2 interaction [18]: highly sensitive

Cc1sc2c(c1C)C(c1ccc(Cl)cc1)=N[C@@H](CC(=O)OC(C)(C)C)c1nnc(C)n1-2 [JQ1]
Sensitivity of BRD4-eRNAPII (CTD-S2P) interaction [19]: insensitive
Sensitivity of BRD4-NSUN1 interaction [20]: insensitive
